Regarding `Nc1ncnc2c1c(-c1ccc(Oc3ccccc3)cc1)nn2C1CCC2(CC1)OCCO2`, the melting point lay in the range of 200 to 202.5 °C.
As for `Nc1ncnc2c1c(-c1ccc(Oc3ccccc3)cc1)nn2[C@H]1CC[C@@H](N2CCNCC2)CC1.O=C(O)/C=C\C(=O)O.O=C(O)/C=C\C(=O)O.O=C(O)/C=C\C(=O)O`, the melting point fell in the range of 173 to 175 °C.
`Nc1ncnc2c1c(-c1ccc(Oc3ccccc3)cc1)nn2C1CCOCC1` gave a melting point of 187 to 187.5 °C.
In turn, `Nc1ncnc2c1c(-c1ccc(Oc3ccccc3)cc1)nn2[C@H]1CC[C@H](N2CCNCC2)CC1.O=C(O)/C=C\C(=O)O.O=C(O)/C=C\C(=O)O.O=C(O)/C=C\C(=O)O` showed a melting point of 153 to 155 °C.

What is called melting point is the temperature, or range, at which the solid turns liquid.

Values taken from patent US6921763B2, “Pyrazolopyrimidines as therapeutic agents” (Abbott Laboratories, priority 1999, dated 2005).
